The values below come from patent US20110124740A1, “NOVEL DIARYL HEPATONOID-BASED COMPOUNDS AND USE THEREOF” (priority 2008, published 2011).

Data set [1] has as its system CEF (chicken embryo fibroblasts).
The test system of data set [2] is avian influenza virus KBNP-0028 (KCTC 10866BP). The format is cell-based, A/chicken/Korea/SNU0028/2000(H9N2).

Where two headings read alike, the source gives them in different places.

`O=C(CCc1ccc(O)c(O)c1)C[C@H](O)CCc1ccc(O)c(O)c1` [12B-AJ-15A, (5R)-1,7-bis(3,4-dihydroxyphenyl)-5-hydroxyheptane-3-one]: the “Cytotoxicity (in words)” value in data set [1] was “no cytotoxicity”. Besides, the “Cytotoxicity (MTT assay value)” value was 0.457 in data set [1] (6.25 μg/mL); 0.369 in data set [1] (12.5 μg/mL); 0.320 in data set [1] (25 μg/mL); 0.369 in data set [1] (50 μg/mL); 0.423 in data set [1] (100 μg/mL); 0.538 in data set [1] (200 μg/mL). For the same compound, the “Antiviral activity (in words)” value in data set [2] was “had antiviral activity”. Besides, the “Number of wells wherein hemagglutination occurs (among 6 wells)” value in data set [2] (12.5 μg/mL), in data set [2] (25 μg/mL), in data set [2] (50 μg/mL) and in data set [2] (100 μg/mL) was 3 throughout.
